The text below walks through data of US4212797A, “Synthetic pentapeptide having opiate agonist activity” (Beckman Instruments, Inc., priority 1976, dated 1980).

Experiment [1] has as its system opiate receptor (stereospecific naloxone binding). Kind of experiment: Inhibition of stereospecific naloxone binding (Pert and Snyder technique). The settings on record: for ID50, concentration required to inhibit 50% of stereospecific naloxone binding: sodium 100 mM. As to the method: B., and Snyder, S., Proceedings of the National Academy of Sciences, Vol. 70, pp. 2243-2247 (1973). The potency is measured as ID50, defined as the concentration required to inhibit 50% of stereospecific naloxone binding. The concentration of sodium was 100 mM. The effectiveness is inversely related to the ID50 value.

Another experiment relates to opiate receptor sites. The settings on record: Hughes et al, Nature 258, 577-579 (1975); cited from earlier work.

In the case of `CSCC[C@H](NC(=O)[C@H](Cc1ccccc1)NC(=O)CNC(=O)CNC(=O)[C@@H](N)Cc1ccc(O)cc1)C(=O)O` [Enkephalin sequence one, H-Tyr-Gly-Gly-Phe-Met-OH], the “ID50, concentration required to inhibit 50% of stereospecific naloxone binding” value in experiment [1] is recorded as 0.4. In addition, in the experiment with opiate receptor sites, the “Opiate agonist potency, comparison in words” value is given as “more potent than sequence two”.

`CC(C)C[C@H](NC(=O)[C@H](Cc1ccccc1)NC(=O)CNC(=O)CNC(=O)[C@@H](N)Cc1ccc(O)cc1)C(=O)O` [Enkephalin sequence two, H-Tyr-Gly-Gly-Phe-Leu-OH]: in experiment [1], the “ID50, concentration required to inhibit 50% of stereospecific naloxone binding” value came out at 1.4.

With `CSCC[C@H](NC(=O)[C@H](Cc1ccccc1)NC(=O)CNC(=O)CNC(=O)[C@@H](N)Cc1ccc(O)cc1)C(N)=O` [Subject Pentapeptide, H-Tyr-Gly-Gly-Phe-Met-NH2], the “Potency relative to the more potent sequence of enkephalin” value in experiment [1] (from ID50 values of Table 1) was “twice as potent as the more potent sequence of enkephalin”. For the same compound, the “ID50, concentration required to inhibit 50% of stereospecific naloxone binding” value in experiment [1] turned out to be 0.2.
